Laboratory results: patent US12357607B2, “Compositions and methods for intravenous administration of 2-bromo-1-(3,3-dinitroazetidin-1-yl)ethanone” (EpicentRx, Inc., priority 2016, dated 2025)

Test: Phase 1 dose-escalation study: intravenous aqueous solution of ABDNAZ; safety, tolerability, adverse events
Format: in vivo, human
Procedure: An aqueous solution of ABDNAZ was intravenously administered to twenty-five human patients as part of a Phase I clinical study. The aqueous solution contained ABDNAZ (2 mg/mL), polyethylene glycol having a number average molecular weight of 400 g/mol (6% w/w), dimethylacetamide (3% w/w), and water for injection. Patients were administered a volume of the aqueous solution of ABDNAZ sufficient to deliver a dose of ABDNAZ in the amount of 10 mg/m^2, 16.7 mg/m^2, 24.6 mg/m^2, 33 mg/m^2, 55 mg/m^2, or 83 mg/m^2. Pain at the injection site due to administration of the aqueous solution of ABDNAZ was experienced by 84% of patients. […] Thereafter, peripheral intravenous delivery in the antecubital or forearm area was used and a longer duration of time was used to perform the infusion (e.g., ranging from 2 hours to 8 hours, while administering at a rate of 3.5 mL/hour that could be adjusted up or down in 0.5 mL/hour increments based on patients' ability to tolerate the infusion).
In this open-label, human, dose-escalation phase 1 study, a 3+3 dose-escalation design was used to assess safety, tolerability, and pharmacokinetics of ABDNAZ. Patients were enrolled from the University of California-San Diego Moores Cancer Center, La Jolla, CA, USA, and the Sarah Cannon Research Institute, Nashville, TN, USA. […] Previous antineoplastic therapies had to have been discontinued at least 6 weeks before intervention start, and patients could show no residual side-effects of previous therapies. Patients were required to practice effective contraception while receiving ABDNAZ. All patients had evaluable disease. Key exclusion criteria included hypoalbuminaemia (albumin <30 g/L), active brain metastases (although patients with stable brain metastases were eligible), pregnancy or breast feeding, any other clinically significant illness or psychiatric disorder that could affect compliance or endpoint assessments, and concurrent use of any other investigational drugs.
Screening assessments were done at the clinical site less than 16 days before treatment initiation and included an electrocardiogram, urinalysis, Modified Borg Dyspnea Assessment, pulse oximetry, and radiographic tumour measurement. A medical history, physical examination, pregnancy test, performance status, complete blood count, a comprehensive serum chemistry, and urinalysis were done within 16 days of the first dosing.
The protocol was reviewed and approved by the investigational review boards at the Moores Cancer Center and the Sarah Cannon Research Institute. All procedures were performed in accordance with the principles established by the Helsinki Declaration. Patients gave written informed consent for all clinical and research aspects of the study before enrolment, which was done according to national and institutional guidelines.
An aqueous solution of ABDNAZ was intravenously administered to patients. The aqueous solution contained ABDNAZ (2 mg/mL), polyethylene glycol having a number average molecular weight of 400 g/mol (6% w/w), dimethylacetamide (3% w/w), and water for injection. Patients were administered a volume of the aqueous solution of ABDNAZ sufficient to deliver a dose of ABDNAZ in the amount of 10 mg/m^2, 16.7 mg/m^2, 24.6 mg/m^2, 33 mg/m^2, 55 mg/m^2, or 83 mg/m^2. Three patients were given a starting dose of 10 mg/m^2 of ABDNAZ before dose escalation (to 16.7 mg/m^2, 24.6 mg/m^2, 33 mg/m^2, 55 mg/m and 83 mg/m^2), with at least three patients per dose cohort, allowing a 2-week observation period before dose escalation. […] Thereafter, peripheral intravenous delivery in the antecubital or forearm area was used and a longer duration of time was used to perform the infusion (e.g., ranging from 2 hours to 8 hours, while administering at a rate of 3.5 mL/hour that could be adjusted up or down in 0.5 mL/hour increments based on patients' ability to tolerate the infusion). […]

[1] = 10 mg/m^2 dose (n = 6), number of patients
[2] = 16.7 mg/m^2 dose (n = 3), number of patients
[3] = 24.6 mg/m^2 dose (n = 3), number of patients
[4] = 33 mg/m^2 dose (n = 4), number of patients
[5] = 55 mg/m^2 dose (n = 3), number of patients
[6] = 83 mg/m^2 dose (n = 6), number of patients
[7] = twenty-five patients, all dose cohorts
[8] = twenty-five patients, all dose cohorts 10-83 mg/m^2

O=C(CBr)N1CC([N+](=O)[O-])([N+](=O)[O-])C1 [ABDNAZ, 2-bromo-1-(3,3-dinitroazetidin-1-yl)ethanone]
Dyspnoea or wheezing, Grade 1-2, share of patients (10 mg/m^2 dose (n = 6)): (17%)
Infusion-site pain, Grade 1-2, share of patients (10 mg/m^2 dose (n = 6)): (67%)
Arm swelling or oedema, Grade 1-2 [1]: 0
Arm swelling or oedema, Grade 3 [1]: 0
Dyspnoea or wheezing, Grade 1-2 [1]: 1
Dyspnoea or wheezing, Grade 3 [1]: 0
Infusion-site pain, Grade 1-2 [1]: 4
Infusion-site pain, Grade 3 [1]: 0
Mouth tingling or burning, Grade 1-2 [1]: 0
Mouth tingling or burning, Grade 3 [1]: 0
Vein hardening, Grade 1-2 [1]: 0
Vein hardening, Grade 3 [1]: 0
Arm swelling or oedema, Grade 1-2, share of patients (16.7 mg/m^2 dose (n = 3)): (33%)
Infusion-site pain, Grade 1-2, share of patients (16.7 mg/m^2 dose (n = 3)): (100%)
Arm swelling or oedema, Grade 1-2 [2]: 1
Arm swelling or oedema, Grade 3 [2]: 0
Dyspnoea or wheezing, Grade 1-2 [2]: 0
Dyspnoea or wheezing, Grade 3 [2]: 0
Infusion-site pain, Grade 1-2 [2]: 3
Infusion-site pain, Grade 3 [2]: 0
Mouth tingling or burning, Grade 1-2 [2]: 0
Mouth tingling or burning, Grade 3 [2]: 0
Vein hardening, Grade 1-2 [2]: 0
Vein hardening, Grade 3 [2]: 0
Infusion-site pain, Grade 1-2, share of patients (24.6 mg/m^2 dose (n = 3)): (33%)
Arm swelling or oedema, Grade 1-2 [3]: 0
Arm swelling or oedema, Grade 3 [3]: 0
Dyspnoea or wheezing, Grade 1-2 [3]: 0
Dyspnoea or wheezing, Grade 3 [3]: 0
Infusion-site pain, Grade 1-2 [3]: 1
Infusion-site pain, Grade 3 [3]: 0
Mouth tingling or burning, Grade 1-2 [3]: 0
Mouth tingling or burning, Grade 3 [3]: 0
Vein hardening, Grade 1-2 [3]: 0
Vein hardening, Grade 3 [3]: 0
Arm swelling or oedema, Grade 2, share of patients (33 mg/m^2 dose (n = 4)): (25%)
Infusion-site pain, Grade 2, share of patients (33 mg/m^2 dose (n = 4)): (75%)
Infusion-site pain, Grade 3, share of patients (33 mg/m^2 dose (n = 4)): (25%)
Vein hardening, Grade 2, share of patients (33 mg/m^2 dose (n = 4)): (25%)
Arm swelling or oedema, Grade 2 [4]: 1
Arm swelling or oedema, Grade 3 [4]: 0
Dyspnoea or wheezing, Grade 2 [4]: 0
Dyspnoea or wheezing, Grade 3 [4]: 0
Infusion-site pain, Grade 2 [4]: 3
Infusion-site pain, Grade 3 [4]: 1
Mouth tingling or burning, Grade 2 [4]: 0
Mouth tingling or burning, Grade 3 [4]: 0
Vein hardening, Grade 2 [4]: 1
Vein hardening, Grade 3 [4]: 0
Arm swelling or oedema, Grade 1-2, share of patients (55 mg/m^2 dose (n = 3)): (67%)
Dyspnoea or wheezing, Grade 1-2, share of patients (55 mg/m^2 dose (n = 3)): (33%)
Infusion-site pain, Grade 1-2, share of patients (55 mg/m^2 dose (n = 3)): (100%)
Mouth tingling or burning, Grade 1-2, share of patients (55 mg/m^2 dose (n = 3)): (67%)
Vein hardening, Grade 1-2, share of patients (55 mg/m^2 dose (n = 3)): (33%)
Arm swelling or oedema, Grade 1-2 [5]: 2
Arm swelling or oedema, Grade 3 [5]: 0
Dyspnoea or wheezing, Grade 1-2 [5]: 1
Dyspnoea or wheezing, Grade 3 [5]: 0
Infusion-site pain, Grade 1-2 [5]: 3
Infusion-site pain, Grade 3 [5]: 0
Mouth tingling or burning, Grade 1-2 [5]: 2
Mouth tingling or burning, Grade 3 [5]: 0
Vein hardening, Grade 1-2 [5]: 1
Vein hardening, Grade 3 [5]: 0
Arm swelling or oedema, Grade 1-2, share of patients (83 mg/m^2 dose (n = 6)): (67%)
Dyspnoea or wheezing, Grade 1-2, share of patients (83 mg/m^2 dose (n = 6)): (50%)
Infusion-site pain, Grade 1-2, share of patients (83 mg/m^2 dose (n = 6)): (100%)
Mouth tingling or burning, Grade 1-2, share of patients (83 mg/m^2 dose (n = 6)): (33%)
Vein hardening, Grade 1-2, share of patients (83 mg/m^2 dose (n = 6)): (83%)
Arm swelling or oedema, Grade 1-2 [6]: 4
Arm swelling or oedema, Grade 3 [6]: 0
Dyspnoea or wheezing, Grade 1-2 [6]: 3
Dyspnoea or wheezing, Grade 3 [6]: 0
Infusion-site pain, Grade 1-2 [6]: 6
Infusion-site pain, Grade 3 [6]: 0
Mouth tingling or burning, Grade 1-2 [6]: 2
Mouth tingling or burning, Grade 3 [6]: 0
Vein hardening, Grade 1-2 [6]: 5
Vein hardening, Grade 3 [6]: 0
Pain at the injection site, grade (all dose cohorts 10-83 mg/m^2): mostly grade 1 and grade 2
Patients needing dose reduction to 33 mg/m^2 because of localized infusion pain (highest dose cohort (83 mg/m^2)): Three
Maximally feasible dose (limited by time constraints related to management of infusion pain): 83 mg/m^2
Patients needing dose reduction to 33 mg/m^2 because of localized infusion pain (penultimate dose cohort (55 mg/m^2)): one
Arm swelling or oedema, number of patients [7]: eight
Arm swelling or oedema, share of patients [7]: 32%
Vein hardening, number of patients [7]: seven
Vein hardening, share of patients [7]: 28%
Pain at the injection site, number of patients [8]: 21 patients
Pain at the injection site, share of patients [8]: 84%
